Test in all cases: growth of human tumour cells (NCI), 48 h
Test [1] has as its system HL-60(TB) leukemia.
Test [2] deals with MALME-3M melanoma.
Test [3] deals with OVCAR-4 ovarian.
Test [4] deals with OVCAR-8 ovarian.
For test [5], the system named is SK-MEL-28 melanoma.
Test [6] deals with SK-OV-3 ovarian.
Test [7] has as its system T-47D breast.
The test system of test [8] is UACC-257 melanoma.

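All cell lines were grown in 96-well plates and treated with compound for 48 hours. Here, GI50 denotes the concentration required for 50% inhibition of growth. TGI: total growth inhibition.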 Bounds are passed on as bounds.

Regarding `C[C@@]12CCC[C@@](C)(C(=O)O)C1CC[C@]13C[C@@](O)(CO)[C@](O)(CCC12)C3` (some centres not stated), the GI50 in test [1] is more than 100000 nM; in test [2], more than 100 µM; in test [3] it was more than 100 µM; in test [4] it was more than 100 µM; in test [5] it was more than 100 µM; in test [6], more than 100 µM. Moreover, the GI50 was more than 100 µM in test [7] and more than 100000 nM in test [8]. In addition, the TGI in test [1], in test [2], in test [3], in test [4], in test [5] and in test [6] was more than 100 µM throughout. Besides, the TGI in test [7] and in test [8] was more than 100 µM each time.

For the compound `C=C1CCC2C3(C)COC(c4ccccc4)OC3CCC2(C)C1/C=C/C1=CCOC1=O` (configuration not stated), the GI50 in test [1] was 1270 nM; in test [2], 15.6 µM; in test [3] it was 3.63 µM; in test [4] it was 4.11 µM; in test [5], 9.15 µM; in test [6], 11.5 µM. In addition, the values for the GI50 in test [7] and in test [8] were 19.9 µM and 63400 nM, respectively. The TGI is 3.91 µM in test [1]; 32.6 µM in test [2]; 16.3 µM in test [3]; more than 100 µM in test [4]; 26.6 µM in test [5]; more than 100 µM in test [6]. Besides, the TGI was 69.4 µM in test [7] and more than 100 µM in test [8].

With `C=CC(=O)Nc1cc(C)ccc1Nc1nc(Nc2cc(OC)ncc2C)ncc1C(F)(F)F`, the GI50 in test [1] was 637 nM; in test [2], 0.0211 µM; in test [3], 1.34 µM; in test [4], 2.83 µM; in test [5], 0.0883 µM; in test [6] it was 4.09 µM. For the same compound, the GI50 in test [7] is 1.2 µM; in test [8], 152 nM. Further, the TGI in test [1] is 3.7 µM; in test [2], 0.161 µM; in test [3], more than 100 µM; in test [4], more than 100 µM; in test [5], 1.08 µM; in test [6] it was more than 100 µM. For the same compound, the TGI was more than 100 µM in test [7] and 1.08 µM in test [8].

`CC(=O)c1c(C)[nH]c(-c2nc3ccc(N4CCN(C)CC4)cc3[nH]2)c1-c1ccc(N(C)C)cc1`: the GI50 in test [1] was 118 nM; in test [2], 0.812 µM; in test [3], 1.17 µM; in test [4] it was 2.33 µM; in test [5] it was 2.47 µM; in test [6], 0.465 µM. The values for the GI50 in test [7] and in test [8] were 0.434 µM and 1030 nM, respectively. The TGI was 0.596 µM in test [1]; 5.1 µM in test [2]; 33.6 µM in test [3]; more than 84.1 µM in test [4]; 18.7 µM in test [5]; 3.65 µM in test [6]. Moreover, the TGI amounted to 16.6 µM in test [7] and 11 µM in test [8].

In the case of `O=Nc1ccc(NO)c2ccccc12`, the GI50 was 3140 nM in test [1]; 5.85 µM in test [2]; 3.33 µM in test [3]; 3.24 µM in test [4]; 15.1 µM in test [5]; 19.1 µM in test [6]. In addition, the GI50 in test [7] was 3.67 µM; in test [8], 2310 nM. Moreover, the TGI in test [1] amounted to 7.56 µM; in test [2], 19 µM; in test [3], 16.2 µM; in test [4] it was 14.6 µM; in test [5], 28.6 µM; in test [6], 35.6 µM. The figures for the TGI in test [7] and in test [8] were 21.4 µM and 5.39 µM, respectively.

For the compound `CCN(CC)CCCNCc1cc(-c2ccccc2)nc2ccccc12`, the GI50 in test [1] was 1620 nM; in test [2], 7.2 µM; in test [3], 6.91 µM; in test [4], 3.21 µM; in test [5], 10.2 µM; in test [6], 52.1 µM. Further, the GI50 in test [7] was 10.2 µM; in test [8], 5110 nM. Besides, the TGI in test [1] is 14.9 µM; in test [2], 24.3 µM; in test [3], more than 100 µM; in test [4], 10.6 µM; in test [5], 22.4 µM; in test [6], more than 100 µM. The TGI in test [7] was determined as 59.6 µM; in test [8] it was 18.3 µM.

With `NCC1OC(n2cnc3c(N)ncnc32)CC1O` (configuration not stated), the TGI in test [1], in test [2], in test [3], in test [4], in test [5] and in test [6] was more than 100 µM in each case. The TGI in test [7] and in test [8] was more than 100 µM throughout.

For the compound `CNC(=O)c1ccccc1Nc1nc(Nc2cc(OC)c(OC)c(OC)c2)ncc1Br`, the GI50 is 24.5 nM in test [1]; 0.0266 µM in test [2]; 0.0287 µM in test [3]; 0.0483 µM in test [4]; 0.0667 µM in test [5]; 0.0309 µM in test [6]. Also, the GI50 in test [7] was 1.07 µM; in test [8] it was 32.8 nM. The TGI in test [1] was 0.181 µM; in test [2], 1.79 µM; in test [3], 2.4 µM; in test [4], 12.2 µM; in test [5], 2.11 µM; in test [6], 5.13 µM. The TGI in test [7] came out at 6.71 µM; in test [8], 3.47 µM.

As for `CCOC(=O)c1cc2c(cc1Cl)SC(N(c1ccc(OC)cc1)S(=O)(=O)c1ccc(Cl)cc1)=NS2(=O)=O`, the GI50 in test [1] was 36600 nM; in test [2] it was 28.1 µM; in test [3] it was 26.1 µM; in test [5], 20.8 µM; in test [6], more than 100 µM; in test [7], 12.1 µM. Besides, the TGI in test [1] was more than 100 µM; in test [2], more than 100 µM; in test [3], more than 100 µM; in test [5], 59.9 µM; in test [6], more than 100 µM; in test [7], 36.1 µM.

Regarding `Clc1ccc(-c2c3c(nn2-c2ccccn2)CCc2ccccc2-3)cc1Cl`, the GI50 was 47.9 µM in test [2]; 39.8 µM in test [3]; more than 100 µM in test [4]; more than 100 µM in test [5]; more than 100 µM in test [6]; more than 100 µM in test [7]. Besides, the GI50 in test [8] is more than 100000 nM. Moreover, the TGI in test [2], in test [3], in test [4], in test [5], in test [6] and in test [7] was more than 100 µM in each case. In test [8], the TGI was more than 100 µM.

Take `Nc1nc2c(ncn2C2C=CC(CO)C2)c(=O)[nH]1` (configuration not stated): the TGI in test [2], in test [3], in test [4], in test [5], in test [6] and in test [7] was more than 100 µM throughout. The compound also gave a TGI in test [8] of more than 100 µM.

On to `Nc1nnnn1CCO`, for which the TGI in test [2], in test [3], in test [4], in test [5], in test [6] and in test [7] was more than 100 µM throughout. In test [8], this compound displayed a TGI of more than 100 µM.

With `CCN(CC)c1ccc(C(O)C2=CC(=O)c3ccccc3C2=O)cc1` (configuration not stated), the GI50 in test [1] is 7100 nM; in test [2], 1.59 µM; in test [3] it was 1.27 µM; in test [5] it was 1.21 µM; in test [6], 2.66 µM; in test [7] it was 2.69 µM. The GI50 in test [8] was 1960 nM. For the same compound, the TGI was more than 100 µM in test [1]; 3.13 µM in test [2]; 3.1 µM in test [3]; 2.6 µM in test [5]; 6.82 µM in test [6]; more than 100 µM in test [7]. Moreover, the TGI in test [8] was 5.02 µM.

Consider `COc1ccc2ccccc2c1C1NC(=O)c2ccccc2N1` (configuration not stated), for which the TGI in test [1] was 0.877 µM; in test [2], more than 100 µM; in test [4], 31.8 µM; in test [5], more than 100 µM; in test [6], 9.29 µM; in test [7], more than 100 µM. The TGI in test [8] was more than 100 µM.

On to `COc1cc(C(=O)N2CCN(c3ncnc4ccccc34)CC2)c(N)cc1OCc1ccccc1`, for which the GI50 in test [1] is 20400 nM; in test [2], 13.7 µM; in test [3] it was 13.2 µM; in test [5] it was 16.5 µM; in test [6], 20.9 µM; in test [7] it was 7.08 µM. Also, the GI50 in test [8] was 21700 nM. For the same compound, the TGI in test [1] came to 47.7 µM; in test [2] it was 30.4 µM; in test [3] it was 47 µM; in test [5], 30.5 µM; in test [6] it was 49 µM; in test [7] it was 40.9 µM. Moreover, in test [8], the TGI amounted to 48.5 µM.

Consider `CN(C)CCNC(=O)c1cccc(N(C)C(=O)c2ccccc2)c1[N+](=O)[O-]`, for which the TGI in test [1], in test [2], in test [4], in test [5], in test [6] and in test [7] was more than 100 µM throughout. Further, the TGI in test [8] was more than 10 µM.

For the origin of these results see PubChem BioAssay (NCI).
